Reference: article PMC8151276, “An Integrated Approach toward NanoBRET Tracers for Analysis of GPCR Ligand Engagement” (Molecules, 2021)

Tests used:
Assay type in all cases: binding
[1] = molecular target: T1, FPR2 (Homo sapiens, UniProt P25090); experiment: NanoBRET screen HiBiT-FPR2 in HEK293
T1 construct: purchased Promega (in-house HiBiT-GPCR construct library, NanoBRET)
T1 sequence (P25090 1-351): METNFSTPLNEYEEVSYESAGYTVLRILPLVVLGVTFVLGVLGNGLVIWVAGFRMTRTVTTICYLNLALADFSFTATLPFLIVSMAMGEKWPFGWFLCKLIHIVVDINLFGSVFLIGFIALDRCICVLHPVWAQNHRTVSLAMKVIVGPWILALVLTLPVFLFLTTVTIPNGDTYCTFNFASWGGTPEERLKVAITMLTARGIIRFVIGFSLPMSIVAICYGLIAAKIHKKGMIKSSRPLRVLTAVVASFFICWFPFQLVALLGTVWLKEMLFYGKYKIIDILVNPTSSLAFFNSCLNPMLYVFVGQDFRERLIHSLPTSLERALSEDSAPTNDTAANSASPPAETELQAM
Procedure: (§1) Each tracer candidate was screened across the entire library of HiBiT-GPCR constructs using NanoBRET as the detection modality. As depicted in Figure 4A, the specificity of interactions was evaluated through decrease in BRET due to competitive displacement of a bound tracer by excess parental compound. Each tracer was analyzed for binding to each HiBiT-GPCR fusion in the absence and in the presence of competing parental compound. Briefly, HEK293 cells were transfected with HiBiT-GPCR constructs diluted into promoterless DNA to reduce expression and maximize translocation to the cell surface. Each tracer candidate was then screened at concentrations of 1 μM and 0.1 μM across cells expressing these fusions. Cells were treated for 1.5 h with tracer either alone or in the presence of 20 μM competing parental compound (i.e., control). BRET was measured upon addition of purified LgBiT and subsequent complementation with HiBiT genetically fused to a GPCR. The specificity of interactions was assessed through a decrease in BRET signal due to competitive displacement of the bound tracer. To further gauge the robustness of these interactions, the fold response over the control (i.e., BRETtracer/BRETcontrol) was calculated. We chose a 1.5-fold response, which translates to ≥7-fold signal over noise as the minimal threshold required to score an interaction as positive. […]. Below we highlight the screening results obtained for our exemplary fluorescent tracers based on Clozapine, Amitriptyline and AZD1283.
(§2) HiBiT-GPCR DNA constructs were diluted in 10 mM Tris pH 8 to a final concentration of 0.01 μg/μL, arrayed in 96-well plates and stored at −20 °C. For transfection, HEK293 cells were suspended in Opti-MEM (without phenol red) supplemented with 2% fetal bovine serum (Seradigm) and 100 units/mL penicillin–streptomycin (Gibco) at a final concentration of 220,000 cells/mL and dispensed into white 96-well plates at 90 μL/well. Subsequent transfections and screens were carried using an Agilent Bravo Automated Liquid Handling Platform. First, the 96-well HiBiT DNA arrays were diluted 25-fold in Opti-MEM (without serum or phenol red) to a final concentration of 0.0004 μg/μL and 20 μL of the diluted DNAs were transferred into new 96-well plates. Next, promoterless carrier DNA (1 μg/μL) was diluted 25-fold (0.04 μg/μL) and then dispensed into the diluted arrays at 20 μL/well. Following brief mixing, Viafect transfection reagent (Promega) diluted 16-fold into Opti-MEM was dispensed into the plates at 40 μL/well. After mixing by pipetting, plates were incubated for 10 min on the pipetting station deck. The DNA-transfection reagent complexes were then added to plates containing cells. To facilitate the screen, 10 μL of DNA-transfection reagent complexes were added in duplicates to the top 4 and bottom 4 rows, resulting in two identical 48-well arrays per plate. Plates with transfected cells were incubated for 18–20 h at 37 °C/5% CO2. A screen of each tracer across the entire library using two different concentrations requires duplicate plates of transfected cells. Depending on the number of tracers being screened, transfections can be scaled up using the same ratios. The next day, for each tracer, four 20× screening solutions in tracer dilution buffer (Promega) were prepared: two duplicates at final concentration of 20 μM and two duplicates at a final concentration of 2 μM. A competing unmodified compound was added to one of each duplicate at a final concentration of 400 μM. The four resulting solutions were diluted 4-fold in Opti-MEM without serum or phenol red to generate 5× solutions (5 µM and 0.5 µM tracer +/− 100 μM competing compound). To screen the library, a BioTek MultiFlo FX liquid dispenser was used to dispense 22.5 µL of tracer solution to the top 4 rows and 22.5 µL tracer + competing compound solution to the 4 bottom rows. Plates were briefly mixed on an orbital shaker and incubated for 1.5 h at room temperature. […]

[2] = molecular target: T2, NPY2R (Homo sapiens, UniProt P49146); experiment: NanoBRET screen HiBiT-NPY2R in HEK293
T2 construct: purchased Promega (in-house HiBiT-GPCR construct library, NanoBRET)
T2 sequence (P49146 1-381): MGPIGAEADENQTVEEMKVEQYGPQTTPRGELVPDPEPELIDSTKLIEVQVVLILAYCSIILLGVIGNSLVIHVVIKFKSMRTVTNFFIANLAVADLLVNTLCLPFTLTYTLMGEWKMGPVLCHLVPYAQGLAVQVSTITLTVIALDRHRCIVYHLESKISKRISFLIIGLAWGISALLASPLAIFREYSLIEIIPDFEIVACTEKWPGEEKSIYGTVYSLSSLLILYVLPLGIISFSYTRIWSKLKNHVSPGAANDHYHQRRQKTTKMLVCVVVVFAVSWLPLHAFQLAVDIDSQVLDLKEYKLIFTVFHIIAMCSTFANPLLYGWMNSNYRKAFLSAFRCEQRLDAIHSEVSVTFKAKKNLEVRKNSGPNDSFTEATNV
Procedure: as §1, §2

[3] = molecular target: T3, GRPR (Homo sapiens, UniProt P30550); experiment: NanoBRET screen HiBiT-GRPR in HEK293
T3 construct: purchased Promega (in-house HiBiT-GPCR construct library, NanoBRET)
T3 sequence (P30550 whole entry): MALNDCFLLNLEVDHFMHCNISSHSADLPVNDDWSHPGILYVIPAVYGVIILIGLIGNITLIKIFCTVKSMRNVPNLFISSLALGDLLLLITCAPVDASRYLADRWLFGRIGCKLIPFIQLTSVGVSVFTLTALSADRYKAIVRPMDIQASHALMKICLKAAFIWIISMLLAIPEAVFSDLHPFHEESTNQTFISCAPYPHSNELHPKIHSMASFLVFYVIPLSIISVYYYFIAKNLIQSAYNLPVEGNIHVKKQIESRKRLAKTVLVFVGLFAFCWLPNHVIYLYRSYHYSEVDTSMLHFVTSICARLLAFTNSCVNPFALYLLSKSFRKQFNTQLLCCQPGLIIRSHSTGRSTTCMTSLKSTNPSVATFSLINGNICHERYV
Procedure: as §1, §2

[4] = molecular target: T4, P2RY10 (Homo sapiens, UniProt O00398); experiment: NanoBRET screen HiBiT-P2RY10 in HEK293
T4 construct: purchased Promega (in-house HiBiT-GPCR construct library, NanoBRET)
T4 sequence (O00398 whole entry, one chain of several): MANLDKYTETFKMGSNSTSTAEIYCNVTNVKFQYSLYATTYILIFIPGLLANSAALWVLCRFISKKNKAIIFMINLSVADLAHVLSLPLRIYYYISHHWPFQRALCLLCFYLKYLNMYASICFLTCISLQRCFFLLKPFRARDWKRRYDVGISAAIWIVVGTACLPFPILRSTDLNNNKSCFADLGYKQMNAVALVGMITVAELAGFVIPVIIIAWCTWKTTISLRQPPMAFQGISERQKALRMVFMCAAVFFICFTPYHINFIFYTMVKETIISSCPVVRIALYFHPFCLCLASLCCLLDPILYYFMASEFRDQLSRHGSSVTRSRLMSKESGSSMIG
Procedure: as §1, §2

[5] = tracer at 0.1μM, listed as amitriptyline-b-2-NB590
[6] = tracer at 1μM, listed as amitriptyline-b-2-NB590

Row | SMILES | NanoBRET Fold Response ([1]; FPR2, tracer 0.1μM) | NanoBRET Fold Response ([1]; FPR2, tracer 1μM) | NanoBRET Fold Response ([2]; NPY2R, tracer 0.1μM) | NanoBRET Fold Response ([2]; NPY2R, tracer 1μM) | NanoBRET Fold Response ([3]; GRPR, tracer 0.1μM) | NanoBRET Fold Response ([3]; GRPR, tracer 1μM) | NanoBRET Fold Response ([4]; P2RY10, tracer 0.1μM) | NanoBRET Fold Response ([4]; P2RY10, tracer 1μM) | other results
1 | Cc1nc2n(c(=O)c1CCN1CCC(c3noc4cc(F)ccc34)CC1)CCCC2OC(=O)NCCOCCOCCOCCOCCNC(=O)CCc1ccc2n1[B-](F)(F)[N+]1=C(c3ccc[nH]3)C=CC1=C2 (stereo not shown) [Risperidone-2-NB590] | 0.94 | 0.95 | 1.07 | 0.98 | 0.96 | 0.91 | 1.14 | 1.14 | 
2 | CCOC(=O)c1cc(C#N)c(N2CCC(C(=O)NS(=O)(=O)Cc3ccccc3/C=C/C(=O)NCCNC(=O)CCc3ccc4n3[B-](F)(F)[N+]3=C(c5ccc[nH]5)C=CC3=C4)CC2)nc1C [AZD1283-1-NB590] |  |  |  |  |  |  |  |  | NanoBRET Fold Response ([1]; FPR2, 0.1μM): 0.99; NanoBRET Fold Response ([1]; FPR2, 1μM): 1.04; NanoBRET Fold Response ([2]; NPY2R, 0.1μM): 1.04; NanoBRET Fold Response ([2]; NPY2R, 1μM): 1.07; NanoBRET Fold Response ([3]; GRPR, 0.1μM): 1.01; NanoBRET Fold Response ([3]; GRPR, 1μM): 1.01; NanoBRET Fold Response ([4]; P2RY10, 0.1μM): 1.35; NanoBRET Fold Response ([4]; P2RY10, 1μM): 1.22
3 | Cc1cc2c(s1)Nc1ccccc1N=C2N1CCN(CCCNC(=O)CCOCCOCCOCCOCCNC(=O)CCc2ccc3n2[B-](F)(F)[N+]2=C(c4ccc[nH]4)C=CC2=C3)CC1 [Olanzapine-a-2-NB590] | 0.70 | 0.80 | 1.00 | 0.99 | 0.95 | 0.93 | 0.99 | 1.15 | 
4 | COc1ccccc1N1CCN(CCCCN2C(=O)c3ccc(CNC(=O)CCOCCNC(=O)c4ccc(CNC(=O)CCc5ccc6n5[B-](F)(F)[N+]5=C(c7ccc[nH]7)C=CC5=C6)cc4)cc3C2=O)CC1 [NAN-190-3-NB590] | 1.35 | 0.77 | 1.05 | 1.07 | 0.87 | 0.94 | 1.23 | 1.08 | 
5 | CC(C)N(CC[C@H](c1ccccc1)c1cc(CCNC(=O)CCOCCOCCOCCOCCNC(=O)CCc2ccc3n2[B-](F)(F)[N+]2=C(c4ccc[nH]4)C=CC2=C3)ccc1O)C(C)C [Tolterodine-2-NB590] | 1.07 | 0.71 | 1.01 | 0.93 | 0.89 | 0.91 | 0.91 | 0.89 | 
6 | CN(C)CCC=C1c2ccccc2CCc2ccc(C(=O)NCCNC(=O)CCOCCOCCOCCOCCNC(=O)CCc3ccc4n3[B-](F)(F)[N+]3=C(c5ccc[nH]5)C=CC3=C4)cc21 [Amitriptyline-b-2-NB590] |  |  |  |  |  |  |  |  | NanoBRET Fold Response [1, 5]: 0.88; NanoBRET Fold Response ([1]; tracer at 1μM): 0.99; NanoBRET Fold Response [2, 5]: 1.09; NanoBRET Fold Response [2, 6]: 0.88; NanoBRET Fold Response [3, 5]: 1.05; NanoBRET Fold Response [3, 6]: 1.03; NanoBRET Fold Response [4, 5]: 1.14; NanoBRET Fold Response [4, 6]: 1.38
7 | O=C(CCOCCOCCOCCOCCNC(=O)CCc1ccc2n1[B-](F)(F)[N+]1=C(c3ccc[nH]3)C=CC1=C2)NCCCN1CCN(C2=Nc3ccccc3Oc3ccc(Cl)cc32)CC1 [Loxapine-a-2-NB590] | 0.81 | 0.85 | 1.02 | 1.17 | 1.17 | 1.09 | 1.14 | 0.98 | 
8 | CN(C)CCC=C1c2ccccc2CCc2ccc(C(=O)NCCNC(=O)CCOCCOCCOCCOCCNC(=O)CCc3ccc4n3[B-](F)(F)[N+]3=C(c5ccc[nH]5)C=CC3=C4)cc21 [Amitriptyline-a-2-NB590] |  |  |  |  |  |  |  |  | NanoBRET Fold Response ([1]; tracer at 0.1μM): 0.96; NanoBRET Fold Response ([1]; tracer at 1μM): 1.05; NanoBRET Fold Response ([2]; tracer at 0.1μM): 0.99; NanoBRET Fold Response ([2]; tracer at 1μM): 0.98; NanoBRET Fold Response ([3]; tracer at 0.1μM): 1.12; NanoBRET Fold Response ([3]; tracer at 1μM): 0.98; NanoBRET Fold Response ([4]; tracer at 0.1μM): 1.09; NanoBRET Fold Response ([4]; tracer at 1μM): 1.07
9 | O=C(CCc1ccc2n1[B-](F)(F)[N+]1=C(c3ccc[nH]3)C=CC1=C2)NCCOCCOCCNC(=O)OCCOCCN1CCN(C2=Nc3ccccc3Sc3ccccc32)CC1 [Quetiapine-a-2-NB590] | 1.06 | 0.82 | 0.99 | 0.85 | 0.66 | 0.84 | 0.94 | 0.95 | 
10 | COc1ccccc1N1CCN(CCCCN2C(=O)c3ccc(CNC(=O)CCOCCOCCOCCOCCNC(=O)CCc4ccc5n4[B-](F)(F)[N+]4=C(c6ccc[nH]6)C=CC4=C5)cc3C2=O)CC1 [NAN-190-2-NB590] | 0.56 | 1.20 | 1.00 | 0.92 | 0.99 | 0.92 |  | 0.95 | 
11 | CN1CCN(C2=Nc3cc(Cl)ccc3N(CC(=O)NCCOCCOCCOCCOCCNC(=O)CCc3ccc4n3[B-](F)(F)[N+]3=C(c5ccc[nH]5)C=CC3=C4)c3ccccc32)CC1 [Clozapine-c-2-NB590] |  |  |  |  |  |  |  |  | NanoBRET Fold Response ([1]; FPR2, 0.1μM tracer): 1.00; NanoBRET Fold Response ([1]; FPR2, 1μM tracer): 0.89; NanoBRET Fold Response ([2]; NPY2R, 0.1μM tracer): 1.01; NanoBRET Fold Response ([2]; NPY2R, 1μM tracer): 0.99; NanoBRET Fold Response ([3]; GRPR, 0.1μM tracer): 1.01; NanoBRET Fold Response ([3]; GRPR, 1μM tracer): 0.99; NanoBRET Fold Response ([4]; P2RY10, 0.1μM tracer): 1.06; NanoBRET Fold Response ([4]; P2RY10, 1μM tracer): 0.98
12 | CN(CCC=C1c2ccccc2CCc2ccccc21)C(=O)CCOCCOCCOCCOCCNC(=O)CCc1ccc2n1[B-](F)(F)[N+]1=C(c3ccc[nH]3)C=CC1=C2 [Amitriptyline-e-2-NB590] |  |  |  |  |  |  |  |  | NanoBRET Fold Response ([4]; tracer at 1μM): 0.99
